# Assays:
# [1] = target: (CUG)109 RNA (SEQ ID NO:8)-MBNL1 protein interaction; test: Enzyme Fragmentation Complementation (EFC) assay of (CUG)109-MBNL1 binding inhibition; format: biochemical
# Description: Small molecule-mediated inhibition of (CUG)109-MBNL1 binding was determined using an Enzyme Fragmentation Complementation (EFC) assay (Eglen et al., “β-Galactosidase Enzyme Fragment Complementation as A Novel Technology for High Throughput Screening,” Comb. Chem. High Throughput Screening 6:381-387 (2003), which is hereby incorporated by reference in its entirety). Briefly, this was performed by first immobilizing (CUG)109 RNA (SEQ ID NO:8) to a 96 well plate. Next, the immobilized RNA was incubated with recombinant MBNL1 fused to the PL enzyme donor peptide (PL-MBNL1, where “PL” is the commercial “ProLabel” enzyme donor peptide) (DiscoveRx PathHunter ProLabel Detection kit) in the presence of varying concentrations of small molecule inhibitor. The Enzyme Acceptor (EA-β-galactosidase) complement was then added, and the activity of the resulting plate—(CUG)109 bound (PL-MBNL1)-(EA-β-galactosidase) activity was monitored via a chemiluminsecent substrate. Only the EA-β-Gal bound to the PL-MBNL1 is capable of performing the luminescent reaction and, as such, any luminescence correlates to the amount of MBNL1 bound to the (CUG)109 immobilized on the plate. Wells lacking (CUG)109 RNA served as a background measure of non-specific luminescence and were subtracted from each experiment to yield a 0% bound value. Wells containing no small molecule inhibitor added served as 100% bound. […]
# [2] = target: (CUG) repeat RNA SEQ ID NO:7; test: Filter binding assay (FBA), SEQ ID NO:7; settings: negative control; method (FBA or FT) not stated; read-out: KD for CUG repeat RNA (SEQ ID NO:7)
# Description: A filter binding assay system was utilized to provide a rapid initial assessment of binding affinity. All binding studies were performed in PBS pH 7.2+1 mM MgCl2 at 22° C. Various concentrations of small molecules were incubated with 10 nM FAM-labeled RNA in a total volume of 50 μl for 20 minutes. A slot blot apparatus was then assembled with a wet nitrocellulose filter, on top of a wet nylon filter, on top of filter paper. 40 μl of each binding mixture was then loaded into an individual well of the apparatus and allowed to penetrate the filters for 10 minutes. The peptidic disulfides selected from the DCL efficiently bind to the nitrocellulose filter. In contrast, the FAM-labeled RNA strands penetrate the nitrocellulose filter and are bound by the nylon filter. As such, RNA bound by the peptidic library members remains bound on the nitrocellulose filter, and unbound RNA passes to the nylon filter.
# Densitometric analysis of the ratio of labeled RNA on the nitrocellulose to nylon filters allows quantification of binding (FIG. 15A). All binding isotherms were fit to the logistic binding model (Equation 1 above). The repetitive nature of the target sequences may in some cases result in binding stoichiometries that are more complex than a simple 1:1 interaction.
# To test specificity and to confirm the determined binding affinities, filter binding assays and fluorescence titrations were performed with SEQ ID NOS: 7-11 (Table 5), and the HIV-1 frameshift stimulating RNA hairpin used in preceding Examples (SEQ ID NO:1, Table 5). Fluorescence titrations were performed using a Varian Cary Eclipse spectrophotometer. 2 μl of 50 or 500 μM small molecule were titrated into 400 μl of FAM labeled RNA sequences an allowed to equilibrate for at least 10 minutes, or until no change in fluorescence spectra was observed. Changes in fluorescence emission at 518 nm (excitation at 490 nm) were measured. Raw data were corrected for dilution dependant changes, and Em518 was plotted against small molecule concentration and fit to the one site binding equation y=(bmaz*x)/(KD+x).) Competition experiments utilizing target RNA (SEQ ID NO:7) and a 20-fold molar excess of total yeast tRNA were performed to measure non-specific RNA binding (Luedtke et al., “RNA-Ligand Interactions: Affinity and Specificity of Aminoglycoside Dimers and Acridine Conjugates to the HIV-1 Rev Response Element,” Biochemistry 42:11391-11403 (2003), which is hereby incorporated by reference in its entirety). Compound 1-1, the HIV-1 RNA ligand, served as a negative control.
# [3] = tested on: HIV-1 frameshift-inducing RNA stem-loop; test: Resin-bead fluorescence microscopy screen (RBDCC) with Cy3-labeled RNA; format: binding; settings: x-y: x resin-bound, y solution phase; 500 nM RNA stem-loop, 72 hours, 50 msec exposure
# Description: First, as a control, 450 beads (150 of each size, 3 beads/compound, 387 nmol total) were placed in a 1.5 ml solid phase reaction vessel. To this was added a 1 ml solution of 1 μM RNA-Cy3 in phosphate buffer. This solution was agitated for 3 hours on a LabQuake™ rotator. After such time, the solution was drained by vacuum and washed three times with buffer (1 ml, 1 min. each). After washing, the resin was suspended in 2 ml buffer and placed in a Petri dish.
# Next, RBDCC experiments were run in quadruplet. […] After such time, the solution was removed from 1 of the 4 experiments and the resin was washed with buffer, plated with 2 ml buffer, and analyzed by fluorescence microscopy as described above. […]
# 1, 2, and 3 were individually synthesized on TentaGel (0.86 nmol/bead), and equilibrated as described above in separate vessels containing only 1, 2, or 3 solution phase monomers and 500 nM RNA stem-loop, half the concentration used in the initial screen. After 72 hours the resin was washed in a manner identical to the conditions of screen number 4 (i.e., the highest stringency screen) and analyzed by fluorescence microscopy (50 msec. exposure) (see FIGS. 6A-I).
smiles,measurement,setting,value
CCc1nc2ccccc2cc1C(=O)N[C@@H](CSSC[C@H](NC(=O)c1cc2ccccc2nc1CC)C(=O)N1CCC[C@H]1C(=O)N[C@@H](Cc1ccccc1)C(=O)NCCCN)C(=O)N1CCC[C@H]1C(=O)N[C@@H](Cc1ccccc1)C(=O)NCCCN [dimer 1-1],"Ki, inhibition of the (CUG)n MBNL1 interaction",[1],do not show any inhibitory effect
same,Kd,[2],> 40 µM
same,affinity for the RNA stem-loop by bead fluorescence intensity,[3],highest affinity

# From patent publication US9212205B2, “Nucleic acid binding compounds and methods of use” (University of Rochester, priority 2007, dated 2015)
